# PubChem BioAssay (NCI)
#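 A five-concentration, 48-hour dose response in 96-well plates underlies each endpoint, interpolated linearly between surrounding concentrations. GI50 = concentration required for 50% inhibition of growth. Definition used: TGI = concentration required for complete inhibition of growth.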
# How the values were obtained:
# Experiment in all cases: DTP human tumour cell line panel, 48 h
# M19-MEL melanoma = test system: M19-MEL melanoma
# DMS 114 small cell lung = test system: DMS 114 small cell lung
# SK-MEL-28 melanoma = test system: SK-MEL-28 melanoma
# HOP-18 NSCLC = test system: HOP-18 NSCLC
# SNB-78 CNS = test system: SNB-78 CNS
# HCC-2998 colon = test system: HCC-2998 colon
# DMS 273 small cell lung = test system: DMS 273 small cell lung
# LXFL 529 NSCLC = test system: LXFL 529 NSCLC
# MDA-MB-231 breast = test system: MDA-MB-231 breast
# BT-549 breast = test system: BT-549 breast
# MDA-MB-435 = test system: MDA-MB-435
# DU-145 prostate = test system: DU-145 prostate
SMILES,TGI (M19-MEL melanoma) [µM],TGI (DMS 114 small cell lung) [µM],TGI (SK-MEL-28 melanoma) [µM],TGI (HOP-18 NSCLC) [µM],TGI (SNB-78 CNS) [µM],TGI (HCC-2998 colon) [µM],TGI (DMS 273 small cell lung) [µM],TGI (LXFL 529 NSCLC) [µM],TGI (MDA-MB-231 breast) [µM],TGI (BT-549 breast) [µM],TGI (MDA-MB-435) [µM],TGI (DU-145 prostate) [µM],GI50 (MDA-MB-231 breast) [µM],GI50 (SK-MEL-28 melanoma) [µM],GI50 (BT-549 breast) [µM],GI50 (MDA-MB-435) [µM],GI50 (DU-145 prostate) [µM],GI50 (HCC-2998 colon) [µM]
O=C(C#Cc1c[nH]c(=O)[nH]c1=O)c1ccccc1,27.1,35.4,22.9,29.2,38.5,32.4,28.9,,,,,,,,,,,
O=C(Nc1cc(C(F)(F)F)ccc1Cl)C(=O)C(C(=O)c1ccc2ccccc2c1)C1OC(=O)c2ccccc21 (centres undefined),46.4,52.9,13.1,,,22.7,,20.5,,,,,,,,,,
CC(C)OCN1COCN=C1NC#N,> 100,> 100,> 100,> 100,,> 100,> 100,> 100,,,,,,,,,,
CC1=CC(C)C(O)C(C)/C=C/C(O)C/C=C(/C)C(=O)CC(O)C(C)\C=C/C=C/C=C\C(=O)NC2=C(O)c3cc(C)c(O)c(c3C(=O)C2=O)C1=O (centres undefined),,,> 100,,,> 100,,,> 100,> 100,> 100,> 100,,,,,,
Cc1ccnc2c1NC(=O)c1cccnc1N2C1CC1,,,> 100,,,> 100,,,> 100,> 100,> 100,> 100,> 100,> 100,> 100,> 100,> 100,> 100
CCCCCCCCCCCCCCCCCC(=O)NCCCNCCCNC(=O)CCCCCCCCCCCCCCCCC,> 100,> 100,> 100,> 100,,> 100,> 100,> 100,,,,,,,,,,
Cc1cc(N2CCN(C)CC2)nc(NC2CCCC(Nc3ccnc4cc(Cl)ccc34)C2)n1 (centres undefined),,,3.7,,,7.4,,,4.25,5.76,3.37,12.7,1.78,1.8,2.08,1.8,3.05,1.97
COC(=O)c1c2c(c(C)[n+]([O-])c1C)C(=O)C(NCc1ccc(F)c(Cl)c1)=CC2=O,,,13.2,,,6.66,,,5.6,5.81,2.87,7.89,1.76,3.03,1.88,1.47,2.44,2.28
Cc1ccc(NC2=C(Cl)C(=O)c3nc(C)ccc3C2=O)cc1,,,3.43,,,3.2,,,2.96,2.82,2.88,2.85,1.41,1.93,1.45,1.48,1.47,1.67
COc1cc2c(cc1OC)-c1c(cc(OC)c(OC)c1OC)C2=O,> 100,> 100,> 100,> 100,,> 100,,> 100,,,,,,,,,,
O=C1c2cccc3c(N4CCN(c5ccc6c7c(cccc57)C(=O)N(CCN5CCNCC5)C6=O)CC4)ccc(c23)C(=O)N1CCN1CCNCC1,,,34.4,,,20.9,,,25.1,39.3,34.2,40.6,10.4,17.1,19,13.2,14.1,5.63
O=C(Oc1ccc([N+](=O)[O-])cc1)N1CCC(C(O)(c2ccc3c(c2)OCO3)c2ccc3c(c2)OCO3)CC1,,,> 100,,,> 100,,,> 100,> 100,> 100,> 100,> 100,> 100,> 100,> 100,> 100,> 100
O=C(O)[C@@H]1C[C@@H](O)CN1,,,> 100,,,> 100,,,> 100,> 100,> 100,> 100,,,,,,
O=C(N/N=C/c1cc2ccccc2c2ccccc12)c1cc(O)c(O)c(O)c1,,,15.1,,,22.4,,,10.1,16.8,16.9,27,2.7,3.57,3.74,3.58,5.79,8.54
C=CC(=O)Nc1cc2c(Nc3ccc(OCc4ccccn4)c(Cl)c3)ncnc2cc1OCCN1CCOCC1,,,19.3,,,11.1,,,34.2,37.4,> 86.5,> 100,2.17,5.11,8.86,5.94,0.502,2.2
Nc1ccc(-c2ccc(-c3nc4ccccc4[nH]3)cc2)cc1,,,> 100,,,0.438,,,> 100,> 61.6,> 100,> 100,29.6,2.08,13.2,< 0.0192,10.6,0.105
COc1cc(/C=C2\C(=O)N(c3c(Cl)cccc3Cl)c3ccccc32)cc(OC)c1O,,,13.5,,,17.7,,,31.5,18.4,15.4,6.13,2.56,1.25,3.2,0.626,0.663,3.3
